Measured values published in patent publication US8383629B2, “Inhibitors of 11β-hydroxysteroid dehydrogenase type 1” (Vitae Pharmaceuticals, Inc., priority 2008, dated 2013).

Biological target: T1, human 11β-HSD1 (Homo sapiens, UniProt P28845)
T1 construct: expressed in transfected cells; host or cells: CHO cells (microsomes)
Assay: Inhibition of microsomal preparation of 11β-HSD1 (SPA, Biological Test Example 1)
Assay type: biochemical
Conditions: for inhibition at 0.111 µM: 111 nM; for IC50: microsomes from CHO cells overexpressing human 11β-HSD1, read-out: IC50 Range
Method in brief: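 Microsomes from CHO cells overexpressing human 11β-HSD1 reduced [3H]cortisone (160 nM in substrate solution, with 2 mM NADPH, HEPES pH 7.4) for 90 min at rt after a 10 min compound preincubation. Compounds were run as 8-point half-log DMSO dilutions from 0.1 mM. 18β-glycyrrhetinic acid stopped the reaction, and anti-cortisol antibody SPA beads read [3H]cortisol.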

T1 sequence (P28845 whole entry): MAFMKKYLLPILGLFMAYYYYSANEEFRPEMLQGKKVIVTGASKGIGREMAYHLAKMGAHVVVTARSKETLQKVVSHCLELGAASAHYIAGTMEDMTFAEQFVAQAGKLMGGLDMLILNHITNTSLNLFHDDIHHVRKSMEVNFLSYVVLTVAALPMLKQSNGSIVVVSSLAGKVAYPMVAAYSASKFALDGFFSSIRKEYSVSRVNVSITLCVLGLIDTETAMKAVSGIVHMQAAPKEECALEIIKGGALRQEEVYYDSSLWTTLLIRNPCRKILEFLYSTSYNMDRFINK

inhibition at 0.111 µM [%] | IC50 [nM] | Compound
79.4 | < 100 | CCOC(=O)CC1CC2(CCN(C(=O)N(C)Cc3ccccc3F)CC2)c2c(Br)cccc21 (centres unmarked) [EXAMPLE 103, Ethyl 2-(7-bromo-1′-((2-fluorobenzyl)(methyl)carbamoyl)-2,3-dihydrospiro[indene-1,4′-piperidine]-3-yl)acetate]
88.7 | < 100 | CN(Cc1ccccc1F)C(=O)N1CCC2(CC1)CC(CC(=O)O)c1cccc(Br)c12 (centres unmarked) [EXAMPLE 104, 2-(7-bromo-1′((2-fluorobenzyl)(methyl)carbamoyl)-2,3-dihydrospiro[indene-1,4′-piperidine]-3-yl)acetic acid]
82.3 | < 100 | O=C1CC2(CCN(C(=O)OCc3ccccc3C(F)(F)F)CC2)c2c(Br)cccc21 [EXAMPLE 105, 2-(trifluoromethyl)benzyl 7-bromo-3-oxo-2,3-dihydrospiro[indene-1,4′-piperidine]-1′-carboxylate]
 | < 100 | O=C1CC2(CCN(C(=O)COc3ccccc3C(F)(F)F)CC2)c2c(Br)cccc21 [EXAMPLE 106, 7-bromo-1′-(2-(2-(trifluoromethyl)phenoxy)acetyl)spiro[indene-1,4′-piperidin]-3(2H)-one]
 | 100 to 1000 | O=C1CC2(CCN(C(=O)CNc3ccccc3C(F)(F)F)CC2)c2c(Br)cccc21 [EXAMPLE 107]
